For one molecule, IC50 results are on record in US6867185B2 (Bristol-Myers Squibb Company, priority 2001, dated 2005).

Where a name gives a salt, the structure may show the parent alone.

Test [1] deals with T1, HCV NS3/4A protease complex, BMS strain (genotype 1a) (Hepatitis C virus genotype 1a, UniProt P27958, C1454S/C1711G).
T1 construct: recombinant HCV NS3/4A protease complex (amino'acids 1027 to 1711); inferred from the pET21b vector and Ni-NTA purification; made in house; host or cells: Escherichia coli BL21 (DE3), pET21b
As to the kind of experiment: Recombinant HCV NS3/4A protease complex FRET peptide assay (BMS strain). Type of test: biochemical. Summed up:
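Enzyme was NS3/4A complex (aa 1027-1711) from genotype 1a BMS strain, carrying C1454S and C1711G mutations plus a three-lysine tail, expressed in E. coli and Ni-NTA/size-exclusion purified to >90% purity.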

Test [2] deals with T2, porcine pancreatic elastase (PPE) (Sus scrofa, UniProt P00772).
T2 construct: purchased Sigma
As to the kind of experiment: Specificity assay, porcine pancreatic elastase. To be noted: 2 hr pre-incubation. Type of test: biochemical. Here is the method: The specificities of compounds of the present invention were determined against a variety of serine proteases: human neutrophil elastase (HNE), porcine pancreatic elastase (PPE) and human pancreatic chymotrypsin and one cysteine protease: human liver cathepsin B. In all cases a 96-well plate format protocol using colorimetric p-nitroaniline (pNA) substrate specific for each enzyme was used as described previously (U.S. Pat. No. 6,323,180) with some modifications to the serine protease assays. All enzymes were purchased from Sigma while the substrates were from Bachem.
Each assay included a 2 hr enzyme-inhibitor pre-incubation at RT followed by addition of substrate and hydrolysis to ˜30% conversion as measured on a Spectramax Pro microplate reader. Compound concentrations varied from 100 to 0.4 μM depending on their potency. […]
The percentage of inhibition was calculated using the formula: [1−((UVinh−UVblank)/(UVctl−UVblank))]×100 […]

T1 sequence (P27958 1027-1711 C1454S/C1711G, one chain of several): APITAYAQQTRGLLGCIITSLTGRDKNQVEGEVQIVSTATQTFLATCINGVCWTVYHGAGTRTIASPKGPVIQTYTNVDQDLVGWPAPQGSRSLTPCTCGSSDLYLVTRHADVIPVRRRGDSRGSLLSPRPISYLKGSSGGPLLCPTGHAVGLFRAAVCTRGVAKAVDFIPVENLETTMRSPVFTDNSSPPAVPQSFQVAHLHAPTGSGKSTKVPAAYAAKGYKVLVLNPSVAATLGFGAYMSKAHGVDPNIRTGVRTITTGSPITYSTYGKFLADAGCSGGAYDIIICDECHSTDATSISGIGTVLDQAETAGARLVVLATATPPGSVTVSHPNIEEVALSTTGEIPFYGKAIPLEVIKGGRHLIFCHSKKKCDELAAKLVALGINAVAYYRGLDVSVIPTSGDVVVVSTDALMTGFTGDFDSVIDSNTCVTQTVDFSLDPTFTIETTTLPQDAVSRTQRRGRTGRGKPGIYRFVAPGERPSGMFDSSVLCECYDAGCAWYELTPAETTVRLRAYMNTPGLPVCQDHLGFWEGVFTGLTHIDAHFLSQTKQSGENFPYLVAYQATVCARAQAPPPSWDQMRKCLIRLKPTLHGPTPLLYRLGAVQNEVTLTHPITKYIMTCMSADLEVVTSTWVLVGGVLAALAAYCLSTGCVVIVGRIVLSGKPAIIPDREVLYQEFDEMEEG
T2 sequence (P00772 27-266): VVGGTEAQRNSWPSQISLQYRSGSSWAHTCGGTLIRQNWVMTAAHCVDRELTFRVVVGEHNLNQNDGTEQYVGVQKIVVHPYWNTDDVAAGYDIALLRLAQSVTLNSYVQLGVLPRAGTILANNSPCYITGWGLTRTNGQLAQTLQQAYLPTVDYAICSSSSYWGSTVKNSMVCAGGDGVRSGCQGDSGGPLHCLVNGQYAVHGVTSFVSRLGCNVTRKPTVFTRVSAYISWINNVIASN

`COc1ccc2c(O[C@@H]3C[C@H]4C(=O)N[C@]5(C(=O)NS(=O)(=O)C6CC6)CC5/C=C/CCCC[C@H](N)C(=O)N4C3)cc(-c3ccccc3)nc2c1` (stereo partly drawn) [Compound 6, (1S,4R,6S,13S,17R)-7-trans-Cyclopropanesulfonic acid [13-amino-17-(7-methoxy-2-phenylquinolin-4-yloxy)-2,14-dioxo-3,15-diazatricyclo[13.3.0.0^4,6]octadec-7-ene-4-carbonyl]amide dihydrochloride]: the IC50 in test [1] (IC50, HCV NS3/4A protease FRET assay in vitro, IC50 ranges) is below 50 nM; in test [1] (IC50, against the BMS HCV NS3/4A complex) it was 21 nM; in test [2], above 100000 nM.
